The results in this text go back to patent US20130172308A1, “ANTIMICROBIAL AGENTS” (John Grant COLLINS, priority 2011, published 2013).

A value given as a limit tells only on which side of the number the result lay.

In data set [1] the test system is E. faecalis. The experiment in a line: Further MIC assays, whole spectrum bacteria (CAMHB). In kind it is cell-based. As to conditions: Table 3; Broth: CAMHB. Set-up: unit not given beside the values. As to the method: (§1) Further MIC assays were conducted against five different bacteria with Rubbn (n=7, 10, 12, 16), two rigid dinuclear species (bridges bpm and dppm) and Gentamicin—Whole spectrum bacteria MIC test results (Broth: CAMHB).

Data set [2] deals with E. coli ATCC 25922. Nature of the data set: MIC determination, broth micro-dilution (CAMHB). The class given is cell-based, Escherichia coli. As to conditions: Table 1; 37° C., 24 h. As for the experimental part: (§2) Four strains of bacteria were chosen for the susceptibility tests: S. aureus ATCC 25923; MRSA (a wild clinical strain from the JCU culture collection); E. coli ATCC 25922 and P. aeruginosa ATCC 27853. The bacteria were grown on Mueller Hinton agar (OXOID, cat. No. CM0337) and suspended in growth medium cation-adjusted Mueller Hinton broth (CAMHB, OXOID, cat. No. CM0405). The MIC of each complex was determined in duplicate by standard micro-dilution methodology (British Society for Antimicrobial Chemotherapy Working Party, J. Antimicrob. Chemother., 1991, 27(suppl. D), 22) using gentamicin as the positive control. The ruthenium complexes were dissolved in CAMHB to a stock solution of […] and two-fold diluted in the broth in 96-well plates in a final volume of […] in each well. The same volume […] of bacterial suspension was added in each well making a concentration range of 0.25 mg ml^−1 to 128 mg ml^−1 for each complex. The plates were incubated at 37° C. for 24 h. The results are summarised in Table 1 below, using the following abbreviations: • Rubpm=ΔΔ-[{Ru(phen)2}2(μ-2,2′-bipyrimidine)]Cl4 • Rudppm=ΔΔ-[{Ru(phen)2}2(μ-4,6-bis(2-pyridyl)pyrimidine)]Cl4 • Rubb7trinuclear=Δ*Δ*-[{Ru*(phen)2}(μ-bb7){Ru(phen)}(μ-bb7){Ru*(phen)2}]Cl6 (only the two terminal metal centres are chiral, the two central metal centres are racemic) • Rubb7tetranuclear=Δ*Δ*-[{Ru*(phen)2}(μ-bb7) {Ru(phen)}(μ-bb7){Ru(phen)}(μ-bb7)-{Ru*(phen)2}]Cl8 (only the two terminal metal centres are chiral, the two central metal centres are racemic)
(§3) Further MIC assays and Minimum Bactericidal Concentration (MBC) assays were conducted against Gram-positive and Gram-negative bacterial strains using symmetric and non-symmetric, inert and labile complexes.
(In general: Broth dilution looks for growth in wells or tubes with falling amounts of substance.)

In data set [3] the test system is S. aureus ATCC 25923. The experiment in a line: MIC determination, broth micro-dilution (CAMHB). In kind it is cell-based, Staphylococcus aureus. As to conditions: Table 1; 37° C., 24 h. As for the experimental part:
as §2, §3

In data set [4] the test system is P. aeruginosa ATCC 27853. The experiment in a line: MIC determination, broth micro-dilution (CAMHB). In kind it is cell-based, Pseudomonas aeruginosa. As to conditions: Table 1; 37° C., 24 h. As to the method: as §2, §3
Data set [5] relates to VRE. Nature of the data set: Further MIC assays, whole spectrum bacteria (CAMHB). In kind it is cell-based, vancomycin-resistant Enterococcus. As to conditions: Table 3; Broth: CAMHB. As for the experimental part: as §1
Data set [6] has as its system S. epidermidis. The data set is described as above. The class given is cell-based. As to conditions: Table 3; Broth: CAMHB. As to the method:
as §1

Data set [7] has as its system S. typhimurium. The data set is described as above. The class given is cell-based. As to conditions: Table 3; Broth: CAMHB. As for the experimental part:
as §1

For data set [8], the system named is human red blood cells. Nature of the data set: Haemolytic assay. The class given is cell-based. As to conditions: for First indication (>2%) of haemolysis: 24 h incubation with red blood cells. As to the method:
Freshly-drawn human blood was collected using lithium heparin vacuum blood collection tubes (Vacutainer, BD Australia). Erythrocytes were separated by centrifugation for 10 min at 1000 g at 10° C. and washed six times with phosphate-buffered saline (PBS) solution and diluted with PBS to a 10% solution. The concentration of erythrocytes was determined by haemocrit centrifugation (Biofuge Haemo, Heraeus instruments). A 1% Triton-X solution was prepared as the positive control. The complexes to be tested were dissolved in PBS to a stock solution of 2048 mg ml^−1 and two-fold diluted in PBS in round-bottomed 96-well plates in a final volume of […] in each well. […] red blood cell suspension samples were added to the wells making a concentration range from […] to 512 μg ml^−1 for Rubbn (n=10, 12, 16) and 2 μg ml^−1 to 1024 μg ml^−1 for Rubb7, and the plates with each complex were respectively incubated for 1, 2, 4, 8 and 24 h at 37° C. After incubation, the plates were centrifuged at 1000 g for 4 min. […] of supernatant in each well was transferred to a corresponding well in a new 96-well microtitre plate. The absorbance of each well was measured at 540 nm using a plate reader (Mutiskan Ascent, Thermo). Each complex was analysed in duplicate. The solutions of the metal complex at the same tested concentrations without erythrocytes were measured as a negative control.
The extent of haemolysis induced by incubation of the ruthenium complexes for 24 h with freshly-collected human red blood cells is shown in FIG. 1 and summarised in Table 5 below: […]

Data set [9] deals with A. baumanii. The experiment in a line: Further MIC assays, whole spectrum bacteria (CAMHB). The class given is cell-based. Set-up: unit not given here. As to conditions: Table 3; Broth: CAMHB. As to the method: as §1
The subject of data set [10] is THP-1 cells. The experiment in a line: Cytotoxicity assay (cell count with haemacytometer). In kind it is cell-based, human. As for the experimental part:
Consequently, the toxicity (IC50) against THP-1 cells (a human acute monocytic leukemia cell line and a good model for nucleated eukaryotic cells) was examined (J. […] Human monocytic THP-1 cells were obtained from the American Type Culture Collection (ATCC, Rockville, Md., USA). […] Cells were seeded at a density of 5×10^5 per well in a sterile flat bottom 96-well plate, and incubated with the desired drug concentration in duplicate, to a total volume of […]. The concentration range for all the complexes was between […]. The plates containing each complex were respectively incubated for 24 and 48 h at 37° C. with 5% CO2. After incubation, the concentration of cells in each well was counted with a haemacytometer and IC50 values were calculated and the results are summarise in Table 6 below: […]

The test system of data set [11] is MRSA (a wild clinical strain from the JCU culture collection). The experiment in a line: MIC determination, broth micro-dilution (CAMHB). The class given is cell-based, methicillin-resistant S. aureus. As to conditions: Table 1; 37° C., 24 h. As for the experimental part:
as §2, §3

In the case of “ΔΔ-[{Ru(phen)2}2(μ-bb12)](PF6)4 [ΔΔ-Rubb12]”, in [1], the “MIC E. faecalis” value worked out at 4. For the same molecule, in data set [2], the “MIC E. coli” value came to 2 µg/mL. Moreover, in data set [3], the “MIC S. aureus” value worked out at 1 µg/mL. Also, the “MIC P. aeruginosa” value in data set [4] amounted to 16 µg/mL. The “MIC VRE” value in [5] is listed as 2. Besides, the “MIC S. epidermidis” value in data set [6] is 0.5. In addition, the “MIC S. typhimurium” value in [7] stood at 8. The “First indication (>2%) of haemolysis” value in data set [8] was 16 µg/mL. Moreover, the haemolytic activity result in [8] (at 10 μM, over 24 h) is reported as “essentially exhibited no haemolysis”. For the same molecule, the “MIC A. baumanii” value in data set [9] is 8. Besides, in data set [10] (24 h), the IC50 was 86 µM and the “IC50 THP-1” value worked out at 135 µg/mL. Moreover, in [10] (48 h), the half-inhibitory concentration (IC50) came to 57 µM and the “IC50 THP-1” value stood at 90 µg/mL. Further, in data set [11], the “MIC MRSA” value amounted to 1 µg/mL.
As to `Cc1ccnc(-c2cc(CCCCCCCCCCc3ccnc(-c4cc(C)ccn4)c3)ccn2)c1.F[P-](F)(F)(F)(F)F.F[P-](F)(F)(F)(F)F.F[P-](F)(F)(F)(F)F.F[P-](F)(F)(F)(F)F.[Ru+2].[Ru+2].c1cnc2c(c1)ccc1cccnc12.c1cnc2c(c1)ccc1cccnc12.c1cnc2c(c1)ccc1cccnc12.c1cnc2c(c1)ccc1cccnc12` [ΔΔ-Rubb10, [{Ru(phen)2}2(μ-bb10)](PF6)4], in data set [1], the “MIC E. faecalis” value turned out to be 8. The “MIC E. coli” value in [2] came to 4 µg/mL. For the same molecule, in data set [3], the “MIC S. aureus” value is 4 µg/mL. In addition, the “MIC P. aeruginosa” value in data set [4] was 64 µg/mL. In addition, the “MIC VRE” value in data set [5] turned out to be 4. The “MIC S. epidermidis” value in data set [6] is on record as 0.5. The “MIC S. typhimurium” value in data set [7] turned out to be 32. In [8], the “First indication (>2%) of haemolysis” value worked out at 32 µg/mL. Moreover, the haemolytic activity result in data set [8] (all the tested concentrations, over 24 h) is recorded as “no significant haemolytic activity”. For the same molecule, the “MIC A. baumanii” value in data set [9] came to 64. For the same molecule, in [10] (24 h), the IC50 came to 194 µM and the “IC50 THP-1” value came out at 300 µg/mL. Moreover, in data set [10] (48 h), the concentration for half-maximal inhibition (IC50) was determined as 103 µM and the “IC50 THP-1” value is 160 µg/mL. Moreover, the “MIC MRSA” value in [11] was 4 µg/mL.
Regarding “ΔΔ-[{Ru(phen)2}2(μ-bb16)](PF6)4 [ΔΔ-Rubb16]”, the “MIC E. faecalis” value in data set [1] is reported as 2. Besides, the “MIC E. coli” value in data set [2] was 4 µg/mL. In data set [3], the “MIC S. aureus” value is 1 µg/mL. Also, the “MIC P. aeruginosa” value in [4] is 8 µg/mL. For the same molecule, in [5], the “MIC VRE” value worked out at 2. For the same molecule, in [6], the “MIC S. epidermidis” value is recorded as 1. The “MIC S. typhimurium” value in [7] turned out to be 8. In addition, the “First indication (>2%) of haemolysis” value in data set [8] was found to be 4 µg/mL. Further, the haemolytic activity entry is reported as “low” in data set [8] (at 10 μM, for 8 h) and “noticeably increased” in data set [8] (at 10 μM, over 24 h). Besides, the “MIC A. baumanii” value in data set [9] is 8. Besides, the IC50 amounted to 48 µM in data set [10] (24 h) and 25 µM in [10] (48 h). Besides, the “IC50 THP-1” value was 78 µg/mL in data set [10] (24 h) and 40 µg/mL in data set [10] (48 h). The “MIC MRSA” value in data set [11] came to 1 µg/mL.
Consider `[Cl-].[Cl-].[Cl-].[Cl-].c1cc[n+]2c(c1)-c1cc3[n+](c[n+]1[Ru-4]214([n+]2cccc5ccc6ccc[n+]1c6c52)[n+]1cccc2ccc5ccc[n+]4c5c21)[Ru-4]12([n+]4ccccc4-3)([n+]3cccc4ccc5ccc[n+]1c5c43)[n+]1cccc3ccc4ccc[n+]2c4c31` [Rudppm, ΔΔ-[{Ru(phen)2}2(μ-4,6-bis(2-pyridyl)pyrimidine)]Cl4, reference compound], for which the “MIC E. faecalis” value in data set [1] is more than 128. Further, the “MIC E. coli” value in [2] was more than 128 µg/mL. For the same molecule, the “MIC S. aureus” value in data set [3] is more than 128 µg/mL. In addition, in data set [4], the “MIC P. aeruginosa” value is more than 128 µg/mL. In [5], the “MIC VRE” value is recorded as more than 128. Moreover, in [6], the “MIC S. epidermidis” value is reported as more than 128. Also, the “MIC S. typhimurium” value in data set [7] is reported as more than 128. Besides, in [9], the “MIC A. baumanii” value is reported as more than 128. Moreover, the “MIC MRSA” value in data set [11] was more than 128 µg/mL.

A word on the IC50: it is the point on the concentration scale where inhibition reaches its midpoint.
